This note sets out measurements from patent publication US9271969B2, “Compounds as inhibitors of diacylglycerol O-acyltransferase type 1 enzyme” (KAINOS MEDICINE, INC., priority 2012, dated 2016).

For one assay, the target named is human DGAT1 (Homo sapiens (Human), UniProt O75907). Description: biochemical.
Another assay concerns the target mouse DGAT1 (Mus musculus (Mouse), UniProt Q9Z2A7). The assay can be described thus: Radiometric DGAT1 assay, mouse liver microsomes. The assay is classed as biochemical. Conditions: mouse liver microsomes having mouse DGAT1 activity. An excerpt: A second source of DGAT1 activity was human or mouse liver microsomes.

Some results are limits rather than exact numbers.

Sequence of human DGAT1 (O75907 whole entry): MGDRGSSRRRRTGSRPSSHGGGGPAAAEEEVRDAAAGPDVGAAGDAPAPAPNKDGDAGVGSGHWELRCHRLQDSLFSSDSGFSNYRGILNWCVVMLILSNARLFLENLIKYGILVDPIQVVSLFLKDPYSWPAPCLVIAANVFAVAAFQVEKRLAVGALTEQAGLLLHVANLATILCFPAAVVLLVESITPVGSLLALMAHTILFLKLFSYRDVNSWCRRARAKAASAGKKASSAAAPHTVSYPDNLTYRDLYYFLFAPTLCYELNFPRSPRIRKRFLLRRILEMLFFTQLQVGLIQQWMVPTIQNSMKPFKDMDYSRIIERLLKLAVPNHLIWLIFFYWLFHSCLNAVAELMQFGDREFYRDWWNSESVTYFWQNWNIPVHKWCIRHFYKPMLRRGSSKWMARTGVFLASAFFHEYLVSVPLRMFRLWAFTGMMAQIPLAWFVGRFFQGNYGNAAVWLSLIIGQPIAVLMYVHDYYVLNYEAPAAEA
Sequence of mouse DGAT1 (Q9Z2A7 whole entry): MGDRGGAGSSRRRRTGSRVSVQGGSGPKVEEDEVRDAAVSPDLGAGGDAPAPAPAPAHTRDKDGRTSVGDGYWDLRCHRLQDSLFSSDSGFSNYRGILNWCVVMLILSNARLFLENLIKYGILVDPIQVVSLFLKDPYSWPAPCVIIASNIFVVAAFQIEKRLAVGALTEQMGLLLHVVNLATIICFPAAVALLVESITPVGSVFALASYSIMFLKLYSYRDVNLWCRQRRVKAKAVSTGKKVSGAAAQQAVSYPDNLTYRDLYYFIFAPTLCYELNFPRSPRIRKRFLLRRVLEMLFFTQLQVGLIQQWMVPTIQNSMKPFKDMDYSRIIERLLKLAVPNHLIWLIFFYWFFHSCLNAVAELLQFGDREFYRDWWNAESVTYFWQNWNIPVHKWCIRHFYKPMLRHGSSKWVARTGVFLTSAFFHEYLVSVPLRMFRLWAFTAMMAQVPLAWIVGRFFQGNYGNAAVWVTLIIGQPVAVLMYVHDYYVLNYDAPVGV
Method for human DGAT1: For this assay, a source of DGAT1 was needed. In that regard, a commercially available plasmid for expression of DGAT1 (e.g., pCMV6-recombinant human DGAT1 plasmid) was transfected for 24 hours in Hep3B cells. After transfection of the plasmid, human DGAT-1 expression was analyzed by Western blot or RT-PCR using whole cell extracts. […] Human and mouse DGAT activity were determined as follows.
The plates were sealed, incubated overnight and counted the next morning on a liquid scintillation counter and luminometer.
DGAT1 catalyzes the transfer of the radiolabelled decanoyl group onto the sn-3 position of didecanoyl glycerol. The resultant radiolabeled tridecanoyl glycerol (tricaprin) preferentially binds to the hydrophobic coating on the phospholipid-coated radiometric assay plate. The proximity of the radiolabeled product to the solid scintillant incorporated into the bottom of the radiometric assay plate induced for release from the scintillant, which was measured in the liquid scintillation counter and luminometer.
IC50 values of the compounds were determined from concentration-dependent inhibition curves by using commercially available software.

Consider `O=C(O)C[C@H]1CC[C@H](c2ccc(-c3ccc4nc(C(=O)NCc5cc(OC(F)(F)F)ccc5F)cn4c3)cc2)CC1` [Compound 9, 2-((1r,4r)-4-(4-(2-((2-Fluoro-5-(trifluoromethoxy)benzyl)carbamoyl)imidazo[1,2-a]pyridin-6-yl)phenyl)cyclohexyl)acetic acid], for which the concentration for half-maximal inhibition (IC50) on human DGAT1 and against mouse DGAT1 was less than 50 nM in each case.

As for `O=C(O)C[C@H]1CC[C@H](c2ccc(-c3ccc4nc(C(=O)NCc5ccc(F)c(OC(F)(F)F)c5)cn4c3)cc2)CC1` [Compound 10, 2-((1r,4r)-4-(4-(2-((4-Fluoro-3-(trifluoromethoxy)benzyl)carbamoyl)imidazo[1,2-a]pyridin-6-yl)phenyl)cyclohexyl)acetic acid], the IC50 against human DGAT1 and at mouse DGAT1 was less than 75 nM throughout.

Turning to `O=C(O)C[C@H]1CC[C@H](c2ccc(-c3ccc4nc(C(=O)NCc5ccc(C(F)(F)F)c(F)c5)cn4c3)cc2)CC1` [Compound 11, 2-((1r,4r)-4-(4-(2-((3-Fluoro-4-(trifluoromethyl)benzyl)carbamoyl)imidazo[1,2-a]pyridin-6-yl)phenyl)cyclohexyl)acetic acid], the IC50 is less than 50 nM against human DGAT1 and less than 75 nM against mouse DGAT1.

As to `COc1ccc(CNC(=O)c2cn3cc(-c4ccc([C@H]5CC[C@H](CC(=O)O)CC5)cc4)ccc3n2)cc1` [Compound 12, 2-((1r,4r)-4-(4-(2-((4-Methoxybenzyl)carbamoyl)imidazo[1,2-a]pyridin-6-yl)-phenyl)cyclohexyl)acetic acid], the results for the half-maximal inhibitory concentration (IC50) at human DGAT1 and at mouse DGAT1 were less than 25 nM and less than 150 nM, respectively.

As to `COc1ccc(OC(F)(F)F)cc1CNC(=O)c1cn2cc(-c3ccc([C@H]4CC[C@H](CC(=O)O)CC4)cc3)ccc2n1` [Compound 18, 2-((1r,4r)-4-(4-(2-((2-Methoxy-5-(trifluoromethoxy)benzyl)carbamoyl)imidazo[1,2-a]-pyridin-6-yl)phenyl)cyclohexyl)acetic acid], the IC50 at human DGAT1 was less than 10 nM; against mouse DGAT1, less than 1 nM.

With `CC(C)c1ccc(CNC(=O)c2cn3cc(-c4ccc([C@H]5CC[C@H](CC(=O)O)CC5)cc4)ccc3n2)cc1` [Compound 19], the IC50 is less than 10 nM on human DGAT1 and less than 1 nM at mouse DGAT1.

Turning to `Cc1ccccc1NC(=O)c1cn2cc(-c3ccc([C@H]4CC[C@H](CC(=O)O)CC4)cc3)ccc2n1` [Compound 32, 2-((1r,4r)-4-(4-(2-(o-Tolylcarbamoyl)imidazo[1,2-a]pyridin-6-yl)phenyl)cyclohexyl)acetic acid], the IC50 against human DGAT1 and against mouse DGAT1 was less than 1 nM throughout.

`O=C(O)C[C@H]1CC[C@H](c2ccc(-c3ccc4nc(C(=O)Nc5ccc(F)cc5C(F)(F)F)cn4c3)cc2)CC1` [Compound 33, 2-((1r,4r)-4-(4-(2-((4-Fluoro-2-(trifluoromethyl)phenyl)carbamoyl)imidazo[1,2-a]pyridin-6-yl)phenyl)cyclohexyl)acetic acid]: the figures for the IC50 against human DGAT1 and at mouse DGAT1 were less than 250 nM and less than 750 nM, respectively.

Turning to `O=C(O)C[C@H]1CC[C@H](c2ccc(-c3ccc4nc(C(=O)Nc5ccccc5C(F)(F)F)cn4c3)cc2)CC1` [Compound 34, 2-((1r,4r)-4-(4-(2-((2-(Trifluoromethyl)phenyl)carbamoyl)imidazo[1,2-a]pyridin-6-yl)phenyl)cyclohexyl)acetic acid], the IC50 was less than 150 nM against human DGAT1 and less than 450 nM against mouse DGAT1.

As to `O=C(O)C[C@H]1CC[C@H](c2ccc(-c3ccc4nc(C(=O)Nc5ccccc5F)cn4c3)cc2)CC1` [Compound 35, 2-((1r,4r)-4-(4-(2-((2-Fluorophenyl)carbamoyl)imidazo[1,2-a]pyridin-6-yl)phenyl)cyclohexyl)acetic acid], the IC50 at human DGAT1 is less than 200 nM; at mouse DGAT1, less than 550 nM.

With `COc1ccccc1NC(=O)c1cn2cc(-c3ccc([C@H]4CC[C@H](CC(=O)O)CC4)cc3)ccc2n1` [Compound 36, 2-((1r,4r)-4-(4-(2-((2-Methoxyphenyl)carbamoyl)imidazo[1,2-a]pyridin-6-yl)phenyl)cyclohexyl)acetic acid], the IC50 against human DGAT1 was less than 100 nM; on mouse DGAT1 it was less than 75 nM.

As to `Cc1ccccc1CNC(=O)c1cn2cc(-c3ccc([C@H]4CC[C@H](CC(=O)O)CC4)cc3)ccc2n1` [Compound 37, 2-((1r,4r)-4-(4-(2-((2-Methylbenzyl)carbamoyl)imidazo[1,2-a]pyridin-6-yl)phenyl)cyclohexyl)acetic acid], the IC50 against human DGAT1 is less than 10 nM; on mouse DGAT1, less than 50 nM.

As to `Cc1cccc(C)c1NC(=O)c1cn2cc(-c3ccc([C@H]4CC[C@H](CC(=O)O)CC4)cc3)ccc2n1` [Compound 38, 2-((1r,4r)-4-(4-(2-((2,6-Dimethylphenyl)carbamoyl)imidazo[1,2-a]pyridin-6-yl)phenyl)cyclohexyl)acetic acid], the values for the IC50 at human DGAT1 and on mouse DGAT1 were less than 200 nM and less than 1 nM, respectively.

Take `O=C(O)C[C@H]1CC[C@H](c2ccc(-c3ccc4nc(C(=O)Nc5cc(F)ccc5F)cn4c3)cc2)CC1` [Compound 39, 2-((1r,4r)-4-(4-(2-((2,5-Difluorophenyl)carbamoyl)imidazo[1,2-a]pyridin-6-yl)phenyl)cyclohexyl)acetic acid]: the results for the IC50 at human DGAT1 and at mouse DGAT1 were less than 10 nM and less than 1 nM, respectively.

Consider `O=C(O)C[C@H]1CC[C@H](c2ccc(-c3ccc4nc(C(=O)Nc5cc(F)c(F)c(F)c5)cn4c3)cc2)CC1` [Compound 40, 2-((1r,4r)-4-(4-(2-((3,4,5-Trifluorophenyl)carbamoyl)imidazo[1,2-a]pyridin-6-yl)phenyl)cyclohexyl)acetic acid], for which the IC50 against human DGAT1 was less than 1 nM; against mouse DGAT1, less than 50 nM.

Regarding `COc1ccc(CNC(=O)c2cn3cc(-c4ccc([C@H]5CC[C@H](CC(=O)O)CC5)cc4)sc3n2)cc1` [Compound 57, 2-((1r,4r)-4-(4-(6-((4-Methoxybenzyl)carbamoyl)imidazo[2,1-b]thiazol-2-yl)phenyl)cyclo-hexyl)acetic acid], the IC50 at human DGAT1 is less than 10 nM; at mouse DGAT1, less than 150 nM.

Regarding `O=C(O)C[C@H]1CC[C@H](c2ccc(-c3cn4cc(C(=O)NCc5ccc6c(c5)OCO6)nc4s3)cc2)CC1` [Compound 58, 2-((1r,4r)-4-(4-(6-((Benzo[d][1,3]dioxol-5-ylmethyl)carbamoyl)imidazo[2,1-b]thiazol-2-yl)-phenyl)cyclohexyl)acetic acid], the IC50 on human DGAT1 is less than 100 nM; against mouse DGAT1, less than 325 nM.

`O=C(O)C[C@H]1CC[C@H](c2ccc(-c3cn4cc(C(=O)NCc5ccc(F)c(OC(F)(F)F)c5)nc4s3)cc2)CC1` [Compound 59, 2-((1r,4r)-4-(4-(6-((4-Fluoro-3-(trifluoromethoxy)benzyl)carbamoyl)imidazo[2,1-b]thiazol-2-yl)phenyl)cyclohexyl)acetic acid]: the IC50 against human DGAT1 and at mouse DGAT1 was less than 25 nM in each case.

One may read the IC50 as the concentration that inhibits the measured activity by half. Read a high IC50 as a need for much substance.
